Experimental findings from patent publication US20250011316A1, “PEROXIREDOXIN 3 INHIBITORS AND METHODS OF USE FOR TREATING CANCER” (Wake Forest University Health Sciences, priority 2022, published 2025) are described below.

Converted amounts (≈) assume the structure as drawn. Where two headings read alike, the source gives them in different places.

Data set [1] relates to human SK—OV-3 ovarian cancer cells. As to the kind of experiment: Cellular Activity Assay (cytotoxicity, crystal violet). Type of data set: cell-based. To be noted: SK—OV-3 cells, treated for 48 hr, 0.1-100 μM, crystal violet absorbance at 540 nm. The source says:
(§1) To test the activity of compounds, two complimentary assays were used as described below. The Biochemical PRX3 Inhibition Assay tests the ability of each compound to crosslink PRX3 in a simple, in vitro system. In the Cellular Activity Assay, we are testing the ability of compounds to kill SK—OV-3 ovarian cancer cells.
The Cellular Activity Assay measures the EC50 of each compound in human SK—OV-3 ovarian cancer cells TS to be taken into the cell, transported to the mitochondria, and crosslink PRX3.
The cytotoxicity of compounds was measured as described in Nelson et al. (2021) Antioxidants (Basel) 10, 150; Cunniff et al. (2015) PloS one 10, e0127310; and Newick et al. (2012) PloS one 7, e39404. SK—OV-3 is an adherent, epithelial, adenocarcinoma cell line obtained from ATCC (ref #: HTB-77). SK—OV-3 cells are resistant to the commonly used chemotherapeutics, cis-platinum and doxorubicin. For this […], SK—OV-3 cells were plated in a 96-well plate. After 24 h recovery, the cells were treated for 48 hr with multiple concentrations of each compound ranging from 0.1-100 μM.
Cells were washed with PBS to remove dead cells and the remaining live cells were fixed with 3.0% formaldehyde and stained with 0.1% crystal violet. The amount of crystal violet was determined by reading the absorbance at 540 nm (crystal violet dye dissolved in 100% methanol) using a plate reader. The signal for crystal violet dye is proportional to the biomass of remaining live cells. GraphPad Prism9 software was used to calculate the effective inhibitory concentration (EC50) of test compounds. Results for each compound, are normalized to the amount of cells in control wells treated with the equivalent concentration of DMSO (negative control). TS or Compound 4 were included in each set of assays as a positive control.

Data set [2] can be described thus: Solubility Assay (HPLC). Type of data set: physicochemical. To be noted: 20 mM HEPES, 100 mM NaCl, pH 7.5, 18-24 hours at ambient temperature. How it is done: A 20 mM stock solution was made for each compound in DMSO. To measure solubility, 0.03-0.05 mL of the stock was added to 0.27 mL 20 mM HEPES, 100 mM NaCl, pH 7.5. The solution was mixed and rotated 18-24 hours at ambient temperature. The next day, solutions were centrifuged for 10 min at 20,000×g at […] to remove insoluble, solid material. Next, 100 μL of the supernatant containing the soluble compound was added to 900 μL DMSO and High Performance Liquid Chromatography was performed as described in Table 1 and either HIPLC gradient 1 (Table 2) or HIPLC gradient 2 (Table 3). For each analog, a 200 μM standard and a 20 μM standard were prepared and run in parallel (standards were dissolved completely in […]). The amount ofLcompound in the experimental sample was calculated by comparing the area under the curve for compound peak to the area for the closest standard and correcting for dilution.

For data set [3], the target named is T1, purified human PRX3 (Homo sapiens, UniProt P30048).
T1 construct: made in house
T1 sequence (P30048 62-256): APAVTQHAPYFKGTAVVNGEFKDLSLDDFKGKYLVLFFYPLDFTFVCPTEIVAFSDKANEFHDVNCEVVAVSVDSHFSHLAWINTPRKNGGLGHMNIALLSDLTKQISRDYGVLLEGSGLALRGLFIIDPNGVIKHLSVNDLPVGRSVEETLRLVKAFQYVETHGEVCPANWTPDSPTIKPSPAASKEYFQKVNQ
As to the kind of experiment: Biochemical PRX3 Inhibition Assay (non-reducible crosslink by SDS PAGE + single adduct by MALDI-TOF MS). To be noted: 100 μM PRX3 with TRX2/thioredoxin reductase/NADPH system and hydrogen peroxide, 1-2 hr at 37° C.
Text: The compounds described herein generally react with two essential cysteine residues in the mitochondrial peroxidase PRX3, leading to the formation of a non-reducible, covalent crosslink of two PRX3 monomers. This crosslink inactivates PRX3. Increased PRX3 crosslink is associated with mitochondrial stress, increased cell death in cell models of malignant mesothelioma and is associated with decreased tumor volume in a mouse model. Cunniff et al. (2015) PloS one 10, e0127310.
as §1
This assay tests the ability of each compound to form a covalent adduct with PRX3. The assay is performed as described in Nelson et al. (2021) Antioxidants (Basel) 10, 150; and Cunniff et al. (2015) PloS one 10, e0127310, and follows the appearance of non-reducible PRX3 crosslinks by SDS PAGE gel electrophoresis and follows the appearance of single PRX3 adducts by mass spectrometry. For this assay, purified human PRX3, hydrogen peroxide (the PRX3 substrate) and all the components required to enable PRX3 to catalytically cycle (thioredoxin-thioredoxin reductase-NAPDH system) are included (details below).
The biochemical PRX3 Inhibition assay contains 100 μM PRX3, 50 μM human TRX2, 0.5 μM mouse thioredoxin reductase, and a NADPH regenerating system composed of 3.2 mM glucose 6-phosphate, 3.2 U/ml glucose 6-phosphate dehydrogenase and 0.4 mM NADPH. Samples are incubated for 1-2 hr at 37° C. with either 0.2 mM TS (positive control), compounds or an equivalent volume of DMSO (negative control). During this incubation, hydrogen peroxide is added to induce turnover of PRX3. Reactions are stopped by the addition of a buffer containing 100 mM dithiothreitol (to break disulfide bonds) and SDS (detergent to denature proteins). NADPH, Glucose 6-Phosphate, and glucose 6-phosphate dehydrogenase were purchased from Sigma Aldrich. PRX3, thioredoxin, and thioredoxin reductase were all purified to >98% purity in the Lowther laboratory according to protocols referenced in Nelson et al. (2021) Antioxidants (Basel) 10, 150; and Cunniff et al. (2015) PloS one 10, e0127310.
To measure the amount of PRX3 crosslink, proteins in the reaction were separated by SDS-polyacrylamide gel electrophoresis and stained for total protein using GelCode Blue (Life Technologies). The amount of unmodified PRX3 and TS-PRX3 crosslink was measured by densiometric analysis of the signal for the PRX3 band running at the MW of a PRX3 crosslink (˜46 kDa) compared to the PRX3 signal at the MW of the un-modified PRX3 (−23 kD).
To measure covalent adduct formation on a single PRX3 monomer, each reaction was exchanged into a mass spectrometry compatible buffer containing 40 mM ammonium citrate, pH 8.3 made in HPLC water. Sample was mixed 1:1 with a matrix solution containing 30 mg/mL sinapinic acid in 70% (vol/vol) acetonitrile, 0.2% formic acid and spotted to onto the sample plate. PRX3 mass was measured by MALDI-TOF MS analysis on a Bruker Daltonics MALDI-TOF MS spectrometer. Spectra were analyzed in FLEXAnalysis Software. The intensity of the reduced PRX3 peak (SH) and intensity of the analog adduct peak was determined and corrected for background signal at the adduct peak in the DMSO control. The fraction of single analog adduct in the monomer peak was determined by dividing the intensity of the adduct peak by the summed intensity of the SH and adduct peaks.

[4] abbreviates: HEPES/NaCl buffer, aqueous with cosolvent or surfactant or cyclodextrin, kinetic from dmso stock, read-out: Solubility.

The EC50 is the concentration giving half of the maximal effect. As a reminder, the solubility is how much of the substance goes into solution per volume. `C=C(NC(=O)c1csc(-c2ccc(CNC(=O)CCCCCNC(=O)OC(C)(C)C)cc2)n1)C(=O)NC(=C)C(=O)OC` [Compound 44, Methyl 2-(2-(2-(4-((6-((tert-butoxycarbonyl)amino)hexanamido)methyl)phenyl)thiazole-4-carboxamido)acrylamido)acrylate] returned an EC50 in data set [1] of 1 to 10 µM. Also, the solubility entry in data set [2] is listed as “+ (<0.1 mM)”. In addition, the “PRX3 Inhibition (Crosslink + Mono-adduct)” value (“PRX3 Inhibition” for short) in data set [3] was “+++ (>90%)”.
`C=C(NC(=O)c1csc(-c2ccc(CNC(=O)OCC3CCOCC3)cc2)n1)C(=O)NC(=C)C(=O)OC` [Compound 45, Methyl 2-(2-(2-(4-(((((tetrahydro-2H-pyran-4-yl)methoxy)carbonyl)amino)methyl)phenyl)thiazole-4-carboxamido)acrylamido)acrylate] gave an EC50 in data set [1] (Homo sapiens) of 1 to 10 µM. In data set [2] (setting [4]), the solubility was below 100 µM. The “PRX3 Inhibition” value in data set [3] is on record as “++ (50-90%)”.
For `C=C(NC(=O)c1csc(N2CCC(NC(=O)C3CCOCC3)CC2)n1)C(=O)NC(=C)C(=O)OC` [Compound 46, Methyl 2-(2-(2-(4-(tetrahydro-2H-pyran-4-carboxamido)piperidin-1-yl)thiazole-4-carboxamido)acrylamido)acrylate], the EC50 in data set [1] (Homo sapiens) lay in the range of 1 to 10 µM. The solubility in data set [2] (setting [4]) is 100 to 1000 µM (≈ 49.2 to 492 µg/mL). The “PRX3 Inhibition” value in data set [3] is “+++ (>90%)”.
On to `C=C(NC(=O)c1csc(N2CCN(C(=O)COCCOC)CC2)n1)C(=O)NC(=C)C(=O)OC` [Compound 47, Methyl 2-(2-(2-(4-(2-(2-methoxyethoxy)acetyl)piperazin-1-yl)thiazole-4-carboxamido)acrylamido)acrylate], for which the EC50 in data set [1] (Homo sapiens, SK-OV-3, 48 h) fell in the range of 25 to 100 µM. Also, the solubility in data set [2] (setting [4]) is above 1000 µM. The “PRX3 Inhibition” value in data set [3] is on record as “++ (50-90%)”.
Compound `C=C(NC(=O)c1csc(-c2ccc(NC(=O)CCCCCCl)cc2)n1)C(=O)NC(=C)C(=O)OC` [Compound 48, Methyl 2-(2-(2-(4-(6-chlorohexanamido)phenyl)thiazole-4-carboxamido)acrylamido)acrylate] gave an EC50 in data set [1] (Homo sapiens) of 1 to 10 µM. The solubility in data set [2] (setting [4]) is below 100 µM. Also, in data set [3], the “PRX3 Inhibition” value is recorded as “++ (50-90%)”.
In the case of `C=C(NC(=O)c1csc(-c2ccc(CNC(=O)OCCOCCNC(=O)OC(C)(C)C)cc2)n1)C(=O)NC(=C)C(=O)OC` [Compound 49, Methyl 2-(2-(2-(4-(13,13-dimethyl-3,11-dioxo-4,7,12-trioxa-2,10-diazatetradecyl)phenyl)thiazole-4-carboxamido)acrylamido)acrylate], in data set [1] (Homo sapiens, SK-OV-3, 48 h), the EC50 was 1 to 10 µM. For the same compound, the solubility in data set [2] (setting [4]) was below 100 µM. Also, in data set [3], the “PRX3 Inhibition” value is recorded as “+++ (>90%)”.
As for `C=C(NC(=O)c1csc(-c2ccc(CNC(=O)OCCCCCCN=[N+]=[N-])cc2)n1)C(=O)NC(=C)C(=O)OC` [Compound 50, Methyl 2-(2-(2-(4-(((((6-azidohexyl)oxy)carbonyl)amino)methyl)phenyl)thiazole-4-carboxamido)acrylamido)acrylate], in data set [1] (Homo sapiens), the EC50 was in the range of 1 to 10 µM. Moreover, the solubility in data set [2] (setting [4]) is below 100 µM. For the same compound, the “PRX3 Inhibition” value in data set [3] is listed as “+ (5-50%)”.
On to `C=C(NC(=O)c1csc(N2CCC(CNC(=O)C3CCOCC3)CC2)n1)C(=O)NC(=C)C(=O)OC` [Compound 52, methyl 2-(2-(2-(4-((tetrahydro-2H-pyran-4-carboxamido)methyl)piperidin-1-yl)thiazole-4-carboxamido)acrylamido)acrylate], for which, in data set [1] (Homo sapiens), the EC50 lay within 10 to 25 µM. The solubility in data set [2] (setting [4]) is below 100 µM. Also, the “PRX3 Inhibition” value in data set [3] is recorded as “+++ (>90%)”.
`C=C(NC(=O)c1csc(N2CCC(C(=O)NC3CCOCC3)CC2)n1)C(=O)NC(=C)C(=O)OC` [Compound 53, Methyl 2-(2-(2-(4-((tetrahydro-2H-pyran-4-yl)carbamoyl)piperidin-1-yl)thiazole-4-carboxamido)acrylamido)acrylate] came in with an EC50 in data set [1] (Homo sapiens) of 10 to 25 µM. Further, the solubility in data set [2] (setting [4]) is below 100 µM. Moreover, the “PRX3 Inhibition” value in data set [3] was “+++ (>90%)”.
On the same counts, the results for `C=C(NC(=O)c1csc(N2CCC[C@H](NC(=O)C3CCOCC3)C2)n1)C(=O)NC(=C)C(=O)OC` [Compound 54, methyl (S)-2-(2-(2-(3-(tetrahydro-2H-pyran-4-carboxamido)piperidin-1-yl)thiazole-4-carboxamido)acrylamido)acrylate] are 25 to 100 µM, below 100 µM and “++ (50-90%)”.
`C=C(NC(=O)c1csc(N2CCC(NC(=O)COC)CC2)n1)C(=O)NC(=C)C(=O)OC` [Compound 55, Methyl 2-(2-(2-(4-(2-methoxyacetamido)piperidin-1-yl)thiazole-4-carboxamido)acrylamido)acrylate] displayed an EC50 in data set [1] (Homo sapiens, SK-OV-3, 48 h) of 10 to 25 µM. Besides, the solubility in data set [2] (setting [4]) is below 100 µM. Further, in data set [3], the “PRX3 Inhibition” value is “++ (50-90%)”.
As to `C=C(NC(=O)c1csc(N2C[C@@H](C)N(C(=O)OC(C)(C)C)[C@@H](C)C2)n1)C(=O)NC(=C)C(=O)OC` [Compound 56, Tert-butyl (cis)-4-(4-((3-((3-methoxy-3-oxoprop-1-en-2-yl)amino)-3-oxoprop-1-en-2-yl)carbamoyl)thiazol-2-yl)-2,6-dimethylpiperazine-1-carboxylate], in data set [1] (Homo sapiens), the EC50 was 1 to 10 µM. The solubility in data set [2] (setting [4]) is below 100 µM. Also, the “PRX3 Inhibition” value in data set [3] was “++ (50-90%)”.
